Assay results as given in the NIST ThermoML archive (doi:10.1021/acs.jced.9b00420).

Settings: Liquid; for mass density: Vibrating tube method; for speed of sound: Light diffraction method

CCCCCCCCC(=O)OCC [ethyl nonanoate]
Settings	mass density [kg/m3]	speed of sound [m/s]
293.15 K, 100 kPa	865.02	–
295.24 K, 10000 kPa	–	1348.5
295.29 K, 7000 kPa	–	1342.4
295.35 K, 5000 kPa	–	1336.6
295.41 K, 3000 kPa	–	1327.1
295.53 K, 1000 kPa	–	1318.3
295.67 K, 100 kPa	–	1303.3
298.15 K, 100 kPa	860.89	–
303.15 K, 100 kPa	856.75	–
303.18 K, 10000 kPa	–	1318
303.22 K, 3000 kPa	–	1296.2
303.26 K, 1000 kPa	–	1278.4
303.3 K, 7000 kPa	–	1307
303.41 K, 5000 kPa	–	1298
303.48 K, 100 kPa	–	1273.9
313.08 K, 10000 kPa	–	1283.3
313.14 K, 1000 kPa	–	1242.7
313.15 K, 100 kPa	848.43	–
313.45 K, 7000 kPa	–	1266
313.56 K, 3000 kPa	–	1252.4
313.77 K, 100 kPa	–	1224.9
314.03 K, 5000 kPa	–	1262.6
322.95 K, 7000 kPa	–	1231.4
323.15 K, 100 kPa	840.09	–
323.39 K, 10000 kPa	–	1246.8
323.64 K, 5000 kPa	–	1215.5
323.68 K, 100 kPa	–	1183.3
324.78 K, 3000 kPa	–	1204.3
324.85 K, 1000 kPa	–	1195.5
332.89 K, 10000 kPa	–	1208.8
332.93 K, 3000 kPa	–	1175.1
333.15 K, 100 kPa	831.73	–
333.21 K, 1000 kPa	–	1163.1
334.21 K, 5000 kPa	–	1185
334.21 K, 7000 kPa	–	1191.7
334.94 K, 100 kPa	–	1142.9
342.88 K, 3000 kPa	–	1137.2
343.1 K, 10000 kPa	–	1170.1
343.12 K, 5000 kPa	–	1153.6
343.15 K, 100 kPa	823.33	–
343.24 K, 1000 kPa	–	1123.8
343.31 K, 7000 kPa	–	1157.3
343.51 K, 100 kPa	–	1107.8
351.94 K, 3000 kPa	–	1098.9
352.22 K, 1000 kPa	–	1085.5
352.39 K, 10000 kPa	–	1135
353.15 K, 100 kPa	814.88	–
353.27 K, 5000 kPa	–	1106.1
353.32 K, 7000 kPa	–	1114.4
354.18 K, 100 kPa	–	1065.4
361.97 K, 5000 kPa	–	1078.7
362.59 K, 7000 kPa	–	1085.6
362.97 K, 3000 kPa	–	1063.9
363 K, 10000 kPa	–	1106.9
363.3 K, 1000 kPa	–	1046
364.18 K, 100 kPa	–	1028.8
371.77 K, 5000 kPa	–	1046.8
371.91 K, 1000 kPa	–	1012.3
371.99 K, 100 kPa	–	1003
372.73 K, 3000 kPa	–	1024.3
373.24 K, 10000 kPa	–	1068.4
373.26 K, 7000 kPa	–	1045.8
381.51 K, 5000 kPa	–	1011.2
381.89 K, 100 kPa	–	965.2
381.96 K, 3000 kPa	–	995.2
383.17 K, 10000 kPa	–	1037.3
383.69 K, 7000 kPa	–	1011.5
384.3 K, 1000 kPa	–	971.3
391.7 K, 5000 kPa	–	974.2
391.74 K, 7000 kPa	–	985.8
391.74 K, 10000 kPa	–	1009.8
391.75 K, 1000 kPa	–	939.5
391.81 K, 3000 kPa	–	961.1
391.89 K, 100 kPa	–	932.1
403.31 K, 1000 kPa	–	902.3
403.36 K, 7000 kPa	–	943.9
403.46 K, 3000 kPa	–	921.8
403.47 K, 10000 kPa	–	968.6
403.82 K, 5000 kPa	–	929.8
405.01 K, 100 kPa	–	884
412.73 K, 3000 kPa	–	893.7
412.73 K, 10000 kPa	–	936.6
412.81 K, 7000 kPa	–	917.8
412.98 K, 1000 kPa	–	870.1
413.05 K, 5000 kPa	–	904.2
413.84 K, 100 kPa	–	861.2
421.5 K, 5000 kPa	–	875.4
421.83 K, 1000 kPa	–	842.1
421.98 K, 10000 kPa	–	916
422 K, 7000 kPa	–	891
422.02 K, 3000 kPa	–	862.5
422.07 K, 100 kPa	–	827.6
431.53 K, 1000 kPa	–	808.9
431.84 K, 5000 kPa	–	850.9
431.86 K, 10000 kPa	–	888.7
431.88 K, 7000 kPa	–	861.7
432.05 K, 3000 kPa	–	827.6
432.93 K, 100 kPa	–	797.1
442.94 K, 1000 kPa	–	779.7
443 K, 7000 kPa	–	835.6
443.02 K, 10000 kPa	–	860.3
443.11 K, 3000 kPa	–	796.4
443.15 K, 5000 kPa	–	814.1
443.7 K, 100 kPa	–	767.3
452.5 K, 1000 kPa	–	750.6
452.64 K, 7000 kPa	–	805
452.65 K, 5000 kPa	–	786.9
452.68 K, 10000 kPa	–	835.1
452.83 K, 100 kPa	–	739.6
452.88 K, 3000 kPa	–	771.1
462.31 K, 3000 kPa	–	743.5
462.34 K, 7000 kPa	–	783.1
462.43 K, 10000 kPa	–	804.8
462.49 K, 5000 kPa	–	763
462.68 K, 1000 kPa	–	720.1
464.19 K, 100 kPa	–	703.5
471.8 K, 3000 kPa	–	718.5
471.86 K, 5000 kPa	–	737.7
471.86 K, 7000 kPa	–	756.6
471.87 K, 1000 kPa	–	693.4
471.88 K, 100 kPa	–	683
471.95 K, 10000 kPa	–	783.4
482.55 K, 1000 kPa	–	665.4
482.56 K, 3000 kPa	–	691.9
482.58 K, 7000 kPa	–	727.2
482.62 K, 5000 kPa	–	709.2
482.62 K, 10000 kPa	–	759.9
482.75 K, 100 kPa	–	652.6
492.48 K, 10000 kPa	–	735.7
492.57 K, 3000 kPa	–	660.7
492.66 K, 7000 kPa	–	704.9
492.67 K, 5000 kPa	–	681.7
493 K, 1000 kPa	–	637.4
502.65 K, 3000 kPa	–	635.1
502.91 K, 7000 kPa	–	681.8
502.95 K, 1000 kPa	–	607.9
503.08 K, 10000 kPa	–	709.9
503.42 K, 5000 kPa	–	655.5
512.78 K, 7000 kPa	–	655
512.8 K, 10000 kPa	–	689.4
512.83 K, 3000 kPa	–	609.6
512.9 K, 5000 kPa	–	633.5
513.2 K, 1000 kPa	–	581.3
522.13 K, 1000 kPa	–	555.5
522.19 K, 7000 kPa	–	631.9
522.31 K, 3000 kPa	–	583.9
522.36 K, 5000 kPa	–	609.3
522.38 K, 10000 kPa	–	662
533.35 K, 1000 kPa	–	519.4
533.43 K, 7000 kPa	–	605.6
533.52 K, 10000 kPa	–	637
533.6 K, 3000 kPa	–	552.1
533.69 K, 5000 kPa	–	581.4
542.72 K, 3000 kPa	–	528.8
542.76 K, 10000 kPa	–	619.6
542.79 K, 7000 kPa	–	583
542.91 K, 5000 kPa	–	553.5
543.62 K, 1000 kPa	–	491
552.52 K, 3000 kPa	–	500.5
552.61 K, 7000 kPa	–	558.1
552.71 K, 1000 kPa	–	458.7
552.72 K, 5000 kPa	–	527.6
552.76 K, 10000 kPa	–	596.5
562.08 K, 1000 kPa	–	428.6
562.32 K, 5000 kPa	–	499.9
562.4 K, 7000 kPa	–	532
562.45 K, 10000 kPa	–	574.7
562.48 K, 3000 kPa	–	468.4
571.78 K, 3000 kPa	–	435.9
571.96 K, 1000 kPa	–	387.2
572.13 K, 7000 kPa	–	504.6
572.32 K, 10000 kPa	–	549
572.37 K, 5000 kPa	–	472
582.01 K, 5000 kPa	–	439.9
582.26 K, 7000 kPa	–	473.6
582.35 K, 10000 kPa	–	525.5
582.39 K, 3000 kPa	–	393.3
591.81 K, 3000 kPa	–	351.2
592.38 K, 5000 kPa	–	398.5
592.79 K, 7000 kPa	–	438.3
593.15 K, 10000 kPa	–	495.3
